Where “and” joins values, the source holds several entries; their conditions need not be identical. Equal entries are not always repeated. Entries after “also recorded” stand apart in the source; their conditions may differ. Where two headings read alike, the source gives them in different places.
What was measured:
[1] = TMS crossover study, pharmacokinetic analysis; format: in vivo, human; details: male, human, plasma, oral, 20 mg
Method: A randomized, double-blind, placebo-controlled, transcranial magnetic stimulation (TMS) crossover study investigated the safety, tolerability, pharmacokinetics (PK), and pharmacodynamics (PD) of single doses of Compound A in healthy right-handed male subjects.
Twenty healthy right-handed male subjects were enrolled and randomized in a blinded fashion to receive a single oral dose of 20 mg Compound A or placebo (1:1 randomization ratio) on Day 1, then were crossed over to receive a single dose of the other treatment on Day 7.
Subjects were screened within 27 days prior to entering the study on Day 1. For Period 1, subjects were admitted to the study unit and dosed on Day 1, and discharged on Day 2. For Period 2, following a washout of 6 days, the same subjects were again admitted to the study unit and dosed on Day 7, and discharged on Day 8. All subjects returned to the clinical unit for an outpatient visit on Day 14, and received a follow-up telephone call on Day 37.
Subjects were dosed in a fed state, but the timing of dosing relative to meals was changed during the study, and varied between a high fat or standard meal eaten either 2 h or 30 minutes prior to dosing, and a high fat or standard meal eaten 1 h or 2.5 h after dosing.
The PK parameters for this study were summarized in two ways. Firstly, PK parameters were calculated where possible using the PK samples collected during each 24 h sampling period for Period 1 and Period 2 separately. Secondly, PK parameters were determined using samples beyond the 24 h sampling period (i.e., from Day 7/8 and/or Day 14). For subjects who received Compound A in the first period, PK samples taken prior to placebo treatment provided additional PK timepoints at >24 h. For subjects who received Compound A in the second period, there was no >24 h PK timepoint until a Day 14 PK sample was added. […] The full PK profile data set consists of the 16 subjects for whom PK samples were taken at >24 h post-dose. For discussion of the PK parameters below, the full PK profile data set was generally used, because it allowed more accurate estimation of PK parameters.
Initially, subjects were dosed 2 hours after a high fat meal with a relatively high fat lunch provided 1 hour after dosing. After blinded review of the PK profiles in the initial 8 subjects, the fat content of the lunch was reduced in an attempt to reduce the time to Tmax, so that the Cmax would fall within the timeframe of TMS measurements. In addition, the timing of the meal relative to dose was changed from 2 hours prior, to 30 minutes prior to dose and subsequently the fat content of the breakfast was reduced. All these changes were made in attempts to provide higher plasma levels during the TMS assessment periods. The timing and type of meal for each subject is specified in Table 13. […] As such the PK data is presented without categorization according to meal content, or relative timing of the meal.

[2] = test system: GABA-A receptor mediated intracortical inhibition; experiment: TMS crossover study, short-interval intracortical inhibition (SICI); format: in vivo, human; details: for Short Intracortical Inhibition (Mean Conditioned MEP/Mean Unconditioned MEP): individual subjects; for Short Intracortical Inhibition (Mean Conditioned MEP/Mean Unconditioned MEP) / Short Intracortical Inhibition (Mean Conditioned MEP/Mean Unconditioned MEP), Mean: ISI 2 ms; for Short Intracortical Inhibition (Mean Conditioned MEP/Mean Unconditioned MEP), Mean: mean of subjects
Method: Short-interval intracortical inhibition (SICI) was measured using 15 conditioning-test stimuli pairs given in a random order at an interstimulus interval (ISI) of 2 ms. The conditioning stimulus was set at 80% of AMT and the suprathreshold stimulus 120% RMT. The calculation of SICI utilized custom scripts to measure the amplitudes of conditioned and unconditioned motor evoked potentials (MEPs) and to express SICI as the ratio of mean conditioned MEPs over mean unconditioned MEPs.

[3] = Full PK Profile Data Set (N=16), Range

Structure (SMILES): Cc1cc(N2CCc3cc(F)ccc3C2)cc(C)c1NC(=O)CC(C)(C)C [Compound A, N-[4-(6-fluoro-3,4-dihydro-1H-isoquinolin-2-yl)-2,6-dimethylphenyl]-3,3-dimethylbutanamide]
- MRT inf [1, 3]: 33 to 304 h
- MRT last [1, 3]: 48.2 ± 122 h
- half-life [1, 3]: 48.2 to 306 h
- AUC(0-t) ([1]; Full PK Profile Data Set (N=16), Range, read-out: AUClast): 1580 ± 4400 ng·h/mL
- CL/F ([1]; Full PK Profile Data Set (N=16), Range, read-out: CL/F normalized (converted)): 0.672 mL/min/kg
- Vd/F ([1]; Full PK Profile Data Set (N=16), Range, read-out: Vz/F normalized): 6.4 ± 33.8 L/kg
- half-life ([1]; Overall (N=20), 24 h sampling, Mean ± SD): 11.1 ± 2.6 h
- half-life ([1]; Overall (N=20), 24 h sampling, Range): 8.01 to 14.9 h
- AUC(0-t) ([1]; Overall (N=20), Mean ± SD, read-out: AUC0-24): 687 ± 160 ng·h/mL
- Cmax ([1]; Overall (N=20), Mean ± SD, read-out: Cmax): 59.2 ± 13.8 ng/mL
- Tmax ([1]; Overall (N=20), Median): 7.8 h
- Tmax ([1]; Overall (N=20), Range): 1.9 to 12 h
- AUC(0-t) ([1]; Overall (N=20), Range, read-out: AUC0-24): 358 to 951 ng·h/mL
- Cmax ([1]; Overall (N=20), Range, read-out: Cmax): 29.9 to 79.4 ng/mL
- half-life ([1]; Period 1 (N=10), 24 h sampling, Mean ± SD): 11.4 ± 2.6 h
- half-life ([1]; Period 1 (N=10), 24 h sampling, Range): 8.46 to 14.9 h
- AUC(0-t) ([1]; Period 1 (N=10), Mean ± SD, read-out: AUC0-24): 693 ± 184 ng·h/mL
- Cmax ([1]; Period 1 (N=10), Mean ± SD, read-out: Cmax): 60.2 ± 17.3 ng/mL
- Tmax ([1]; Period 1 (N=10), Median): 6.94 h
- Tmax ([1]; Period 1 (N=10), Range): 1.92 to 12 h
- AUC(0-t) ([1]; Period 1 (N=10), Range, read-out: AUC0-24): 383 to 951 ng·h/mL
- Cmax ([1]; Period 1 (N=10), Range, read-out: Cmax): 29.9 to 77.1 ng/mL
- half-life ([1]; Period 2 (N=10), 24 h sampling, Mean ± SD): 10.6 ± 2.9 h
- half-life ([1]; Period 2 (N=10), 24 h sampling, Range): 8.01 to 14.3 h
- AUC(0-t) ([1]; Period 2 (N=10), Mean ± SD, read-out: AUC0-24): 681 ± 142 ng·h/mL
- Cmax ([1]; Period 2 (N=10), Mean ± SD, read-out: Cmax): 58.3 ± 9.94 ng/mL
- Tmax ([1]; Period 2 (N=10), Median): 7.83 h
- Tmax ([1]; Period 2 (N=10), Range): 1.92 to 8.15 h
- AUC(0-t) ([1]; Period 2 (N=10), Range, read-out: AUC0-24): 358 to 869 ng·h/mL
- Cmax ([1]; Period 2 (N=10), Range, read-out: Cmax): 46.2 to 79.4 ng/mL
- concentration at 2 h ([1]; Placebo Treatment Period (carry-over), 2 h, Mean, read-out: Compound A Plasma Concentration): 5.46 ng/mL
- concentration at 4 h ([1]; Placebo Treatment Period (carry-over), 4 h, Mean, read-out: Compound A Plasma Concentration): 5.17 ng/mL
- concentration at 6 h ([1]; Placebo Treatment Period (carry-over), 6 h, Mean, read-out: Compound A Plasma Concentration): 5.28 ng/mL
- CL/F ([1]; equivalent of 97.5 mL/h/kg, read-out: Body weight normalized clearance (CL/F)): ~1.6 mL/min/kg
- Cmax ([1]; subjects who received placebo in Period 2, mean, read-out: Cmax of Compound A in placebo treatment period): 5.84 ng/mL
- Cmax ([1]; subjects who received placebo in Period 2, range, read-out: Cmax of Compound A in placebo treatment period): 3.34 to 9.61 ng/mL
- SICI (mean conditioned MEPs/mean unconditioned MEPs) ([2]; 20 mg single dose): no significant findings; also recorded: lack of an effect on SICI
- Short Intracortical Inhibition (Mean Conditioned MEP/Mean Unconditioned MEP) ([2]; 2 h post-dose): 0.71 and 0.72 and 1.29 and 0.91 (2×) and 0.94 and 1.11 and 0.96 and 1.18 and 2.68 and 0.92 (2×) and 0.97 and 1.12 and 1.31 and 1.09 and 1.03 and 0.85 and 0.67
- Short Intracortical Inhibition (Mean Conditioned MEP/Mean Unconditioned MEP) ([2]; 4 h post-dose): 1.03 (2×) and 0.93 and 0.54 and 1.20 and 1.68 and 1.64 and 0.86 and 0.61 and 1.01 and 1.53 and 1.04 and 1.17 and 0.89 and 1.27 and 0.87 and 0.75 and 1.07 and 1.02
- Short Intracortical Inhibition (Mean Conditioned MEP/Mean Unconditioned MEP), Mean ([2]; 2 h post-dose): 1.07
- Short Intracortical Inhibition (Mean Conditioned MEP/Mean Unconditioned MEP), Mean ([2]; 4 h post-dose): 1.06
